Assay results: patent US8410163B2, “Substituted 4-amino-5-benzoyl-2-(phenylamino)thiophene-3-carbonitriles and substituted 4-amino-5-benzoyl-2-(phenylamino)thiophene-3-carboxamides as tubulin polymerization inhibitors” (Telik, Inc., priority 2009, dated 2013)
pIC50: −log10 of the molar value. Read-outs that look alike come from different tables or passages of the source.

Columns and labels:
[1] = tested on: A549 (human lung adenocarcinoma); test: Cytotoxicity assay (CellTiter-Glo), A549; type: cell-based; details: 72 h, A549 cells, three days culture, rounded to 1 significant figure
Experimental: (§1) The cell lines A549 (human lung adenocarcinoma), OVCAR-3 (human ovarian carcinoma), HL60 (human promyelocytic leukemia), DLD1 (human colon adenocarcinoma) and HCT116 (human colon carcinoma) were obtained from the American Type Culture Collection, Manassas, Va., U.S.A. All products were used in accordance with manufacturer's directions. The histone phosphorylation (p-H3) assay was conducted in duplicate and the cytotoxicity assays were conducted in triplicate, in each case with solvent control.
(§2) Log-phase cells were trypsinized, collected by centrifugation, and resuspended in a small volume of fresh medium, and the density of viable cells was determined following Trypan Blue staining. Cells were diluted in fresh media, the test compounds (concentrations between 0.1 μM and 200 μM, dissolved in DMSO, 50 μL) added immediately after dilution to achieve a final DMSO concentration of 0.5%, then the suspensions added at 150 μL/well to 96-well plates, and incubated overnight to allow attachment in the case of adherent cells. The cells were cultured for three days (about three doubling times). The cells were then collected by centrifugation, and 100 μL of the culture supernatant was replaced by the CellTiter-Glo reagent. After incubation for 15 minutes at room temperature, the plate was read with a luminometer. […] The table gives cytotoxicity IC50s in μM, rounded to 1 significant figure.

[2] = tested on: DLD1 (human colon adenocarcinoma); test: Cytotoxicity assay (CellTiter-Glo), DLD1; type: cell-based; details: DLD-1, 72 h, DLD1 cells, three days culture, rounded to 1 significant figure
Experimental: as §1, §2

[3] = tested on: OVCAR-3 (human ovarian carcinoma); test: Cytotoxicity assay (CellTiter-Glo), OVCAR-3; type: cell-based; details: 72 h, OVCAR-3 cells, three days culture, rounded to 1 significant figure
Experimental: as §1, §2

[4] = tested on: HCT116 (human colon carcinoma); test: Cytotoxicity assay (CellTiter-Glo), HCT116; type: cell-based; details: HCT-116, 72 h, HCT116 cells, three days culture, rounded to 1 significant figure
Experimental: as §1, §2

[5] = tested on: HL60 (human promyelocytic leukemia); test: Cytotoxicity assay (CellTiter-Glo), HL-60; type: cell-based; details: 72 h, HL-60 cells, three days culture, rounded to 1 significant figure
Experimental: as §1, §2

tubulin = test: Inhibition of tubulin polymerization, cell-free fluorescence assay; type: biochemical
[6] = tested on: HCT116 (human colon carcinoma) xenograft; test: HCT116 xenograft assay, oral administration; type: in vivo; details: nu/nu mice, 200 mg/Kg by gavage once/day days 1-5 and 8-12, measured 2 days after the last day of treatment
Experimental: (§3) Male athymic nu/nu mice, 6-8 weeks old (about 20 g), were implanted subcutaneously in the right fore flank with about 1×10^7 cells of the HCT116 (human colon carcinoma) line that had been grown in antibiotic-free medium for at least two passages. About 14-21 days after tumor transplantation, when the tumor weight was about 50-250 mg, the mice were assigned to treatment groups. Test compounds were suspended at 20 mg/mL in 0.55 wt. % aqueous carboxymethylcellulose. Groups of mice were treated with compounds 2A, 9A, and 12A at 200 mg/Kg by gavage once/day on days 1-5 and 8-12 from the start of treatment, with vehicle control. Tumor growth inhibition was measured 2 days after the last day of treatment.

[7] = tested on: HL60 (human promyelocytic leukemia) xenograft; test: HL60 xenograft assay, oral administration; type: in vivo; details: Mus musculus, HL-60, po, nu/nu mice, read-out: inhibition of tumor growth compared to vehicle
Experimental: as §3, with “HL60” for “HCT116”, “promyelocytic leukemia)” for “colon carcinoma)”, “6” for “14-21”, “implantation,” for “transplantation,”, “8-10” for “8-12”, “on” for “2 days after”
The experiment was conducted generally as described in In vivo Example 1. Groups of mice were treated with compounds 5A, 6A, 7A, 8A, and 10A at 200 mg/Kg by gavage once/day on days 1-5 and 8-10 from the start of treatment, with vehicle control. Tumor growth inhibition was measured the day after the last day of treatment.

[8] = tested on: P388 and P388/ADR (doxorubicin-resistant) cells; test: Cross-resistance, cytotoxicity in P388 and P388/ADR cells; type: cell-based, mouse; details: cytotoxicity in P388/ADR (doxorubicin-resistant) versus P388 cells
Experimental: Compounds 2A, 9A, and 12A were tested for cross-resistance in the P388 (mouse leukemia) cell line, by assaying its cytotoxicity in both P388 and P388/ADR (doxorubicin-resistant) cells. […] Several of the more cytotoxic compounds of formula A were tested and found not to be substrates for P-glycoprotein, an efflux pump commonly associated with multidrug-resistance in cancer cells.

[9] = 200 mg/Kg by gavage once/day days 1-5 and 8-10, measured on the last day of treatment (In vivo Example 1)
[10] = 200 mg/Kg by gavage once/day days 1-5 and 8-10, measured the day after the last day of treatment (In vivo Example 3)

SMILES	pIC50 [1]	pIC50 [5]	also measured
CCOc1ccc(Nc2sc(C(=O)c3ccc(Cl)cc3)c(N)c2C#N)cc1 [Compound 4A]	7.70	7.40	pIC50 [2]: 7.52; pIC50 [3]: 7.52; pIC50 [4]: 7.05
COc1ccc(Nc2sc(C(=O)c3ccc(OC)cc3)c(N)c2C#N)cc1 [Compound 12A]	7.30	7.40	pIC50 [2]: 7.40; pIC50 [3]: 7.52; inhibition of tubulin polymerization (cell-free) (tubulin): inhibition of tubulin polymerization; inhibition of tumor growth compared to vehicle [6]: 46%; pIC50 [4]: 7.40; inhibition in vivo at 200 mg/kg [7, 9]: 66%
CCOc1ccc(Nc2sc(C(=O)c3ccc(Cl)cc3)c(N)c2C(N)=O)cc1 [Compound 13A]	7.22	7.52	
COc1ccc(Nc2sc(C(=O)c3ccc(OC)cc3)c(N)c2C(N)=O)cc1 [Compound 8A]	7.40	7.52	pIC50 [2]: 8.15; pIC50 [3]: 8.00; inhibition in vivo at 200 mg/kg [7, 10]: 10%
N#Cc1cccc(C(=O)c2sc(Nc3ccc4c(c3)OCO4)c(C#N)c2N)c1 [Compound 34A]	6.00		
COc1cccc(C(=O)c2sc(Nc3ccc4c(c3)OCO4)c(C#N)c2N)c1 [Compound 25A]	6.30		
CCOc1ccc(Nc2sc(C(=O)c3ccc(OC)cc3)c(N)c2C#N)cc1 [Compound 17A]	7.00	7.00	
N#Cc1c(Nc2ccc3c(c2)OCO3)sc(C(=O)c2ccc(Br)cc2)c1N [Compound 23A]	6.52		
N#Cc1ccc(C(=O)c2sc(Nc3ccc4c(c3)OCO4)c(C#N)c2N)cc1 [Compound 20A]	6.70		
N#Cc1c(Nc2ccc3c(c2)OCO3)sc(C(=O)c2cccc(Br)c2)c1N [Compound 41A]	5.70		
CN(C)CCOc1ccc(Nc2sc(C(=O)c3ccc(Cl)cc3)c(N)c2C#N)cc1 [Compound 36A]	6.00		
CCN(CC)c1ccc(C(=O)c2sc(Nc3ccc4c(c3)OCO4)c(C#N)c2N)cc1 [Compound 9A]	7.40	7.40	pIC50 [2]: 7.70; pIC50 [3]: 7.70; inhibition of tubulin polymerization (cell-free) (tubulin): inhibition of tubulin polymerization; inhibition of tumor growth compared to vehicle [6]: 36%; pIC50 [4]: 7.40; inhibition in vivo at 200 mg/kg [7, 9]: 43%
N#Cc1c(Nc2ccc3c(c2)OCO3)sc(C(=O)c2cccc(Cl)c2)c1N [Compound 35A]	6.00		
CC[C@]1(O)C[C@@H]2CN(CCc3c([nH]c4ccccc34)[C@@](C(=O)OC)(c3cc4c(cc3OC)N(C)[C@H]3[C@@](O)(C(=O)OC)[C@H](OC(C)=O)[C@]5(CC)C=CCN6CC[C@]43[C@@H]65)C2)C1 [vinblastine]			resistance ratio [8]: 50 fold
N#Cc1c(Nc2ccc(F)cc2)sc(C(=O)c2ccc(Cl)cc2)c1N [Compound 38A]	5.70		
COc1ccc(C(=O)c2sc(Nc3ccc(OC)cc3OC)c(C#N)c2N)cc1 [Compound 32A]	6.00		
NC(=O)c1c(Nc2ccc3c(c2)OCO3)sc(C(=O)c2ccc(Cl)cc2)c1N [Compound 27A, 4-amino-2-(1,3-benzodioxol-5-ylamino)-5-(4-chlorobenzoyl)thiophene-3-carboxamide]	6.22	6.70	pIC50 [3]: 6.52; pIC50 [4]: 6.22
Cc1ccc(Nc2sc(C(=O)c3ccc(Cl)cc3)c(N)c2C#N)cc1 [Compound 14A]	7.00	7.15	inhibition of tubulin polymerization (cell-free) (tubulin): inhibition of tubulin polymerization; pIC50 [4]: 7.10
CCN(CC)c1ccc(C(=O)c2sc(Nc3ccc(OC)cc3OC)c(C#N)c2N)cc1 [Compound 26A]	6.30		
COc1ccc(Nc2sc(C(=O)c3ccc(OCCN(C)C)cc3)c(N)c2C#N)cc1 [Compound 39A]	5.70		

SMILES	pIC50 [1]	pIC50 [5]	also measured
COc1ccc(C(=O)c2sc(Nc3ccc4c(c3)OCO4)c(C#N)c2N)cc1OC [Compound 16A]	7.00	7.22	
COc1ccc(Nc2sc(C(=O)c3ccc(Cl)cc3)c(N)c2C(N)=O)cc1 [Compound 1A, 4-amino-5-(4-chlorobenzoyl)-2-[(4-methoxyphenyl)amino]thiophene-3-carboxamide]	8.00	8.00	pIC50 [2]: 8.15; pIC50 [3]: 8.00; pIC50 [4]: 8.00
Cc1ccc(C(=O)c2sc(Nc3ccc4c(c3)OCO4)c(C#N)c2N)cc1 [Compound 19A]	6.70		
COc1ccc(C(=O)c2sc(Nc3ccc4c(c3)OCO4)c(C#N)c2N)cc1 [Compound 10A]	7.40	7.40	pIC50 [2]: 7.52; pIC50 [3]: 7.40; inhibition in vivo at 200 mg/kg [7, 10]: 67%
COc1cccc2c1C(=O)c1c(O)c3c(c(O)c1C2=O)C[C@@](O)(C(=O)CO)C[C@@H]3O[C@H]1C[C@H](N)[C@H](O)[C@H](C)O1 [doxorubicin]			resistance ratio [8]: 260 fold
N#Cc1c(Nc2ccc([N+](=O)[O-])cc2)sc(C(=O)c2ccc(Cl)cc2)c1N [Compound 37A]	5.70		
COc1ccc(Nc2sc(C(=O)c3ccc(Cl)cc3)c(N)c2C#N)cc1OC [Compound 5A]	7.70	7.70	pIC50 [2]: 7.70; pIC50 [3]: 7.70; pIC50 [4]: 7.70; inhibition in vivo at 200 mg/kg [7, 10]: 45%
CCOc1ccc(Nc2sc(C(=O)c3ccc(OC)cc3OC)c(N)c2C#N)cc1 [Compound 6A, 4-amino-5-(2,4-dimethoxybenzoyl)-2-[(4-ethoxyphenyl)amino]thiophene-3-carbonitrile]	7.52	7.30	pIC50 [4]: 7.52; inhibition in vivo at 200 mg/kg [7, 10]: 89%
CC(C)c1ccc(Nc2sc(C(=O)c3ccc(Cl)cc3)c(N)c2C#N)cc1 [Compound 29A]	6.10		
CCN(CC)c1ccc(C(=O)c2sc(Nc3ccc(OC)c(OC)c3)c(C#N)c2N)cc1 [Compound 11A]	7.30		
N#Cc1c(Nc2ccc3c(c2)OCO3)sc(C(=O)c2ccc(F)cc2)c1N [Compound 33A]	6.00		
COC(=O)c1ccc(Nc2sc(C(=O)c3ccc(Cl)cc3)c(N)c2C#N)cc1 [Compound 30A]	6.00		
COc1ccccc1C(=O)c1sc(Nc2ccc3c(c2)OCO3)c(C#N)c1N [Compound 21A]	6.70		inhibition of tubulin polymerization (cell-free) (tubulin): inhibition of tubulin polymerization
COc1cc2c(c(OC)c1OC)-c1ccc(OC)c(=O)cc1[C@@H](NC(C)=O)CC2 [colchicine]			resistance ratio [8]: 70 fold
COc1ccc(Nc2sc(C(=O)c3ccc(OC)cc3OC)c(N)c2C#N)c(OC)c1 [Compound 22A]	6.70		
N#Cc1c(Nc2ccc(C(F)(F)F)cc2)sc(C(=O)c2ccc(Cl)cc2)c1N [Compound 31A]	6.00		
N#Cc1c(Nc2ccc3c(c2)OCO3)sc(C(=O)c2ccc(Cl)cc2)c1N [Compound 24A]	6.52	7.10	
COc1ccc(Nc2sc(C(=O)c3ccc(Br)cc3)c(N)c2C#N)cc1 [Compound 3A]	7.70		
COc1ccc(C(=O)c2sc(Nc3ccc(OC)c(OC)c3)c(C#N)c2N)cc1 [Compound 28A]	6.15		
